ChEMBL document CHEMBL3639003, “Heteroaryloxycarbocyclyl compounds as PDE10 inhibitors” (2015)
pIC50: −log10 of the molar value.

Biological target: cAMP and cAMP-inhibited cGMP 3',5'-cyclic phosphodiesterase 10A (Homo sapiens, UniProt Q9Y233)
Experiment: IMAP TR-FRET Assay: Enzyme Activity. An IMAP TR-FRET assay was used to analyze the enzyme activity (Molecular Devices Corp., Sunnyvale Calif.). 5 uL, of serial diluted PDE10A (BPS Bioscience, San Diego, Calif.) or tissue homogenate was incubated with equal volumes of diluted fluorescein labeled cAMP or cGMP for 60 min in 384-well polystyrene assay plates (Corning, Corning, N.Y.) at room temperature. After incubation, the reaction was stopped by adding 60 uL, of diluted binding reagents and was incubated for 3 hours to overnight at room temperature. The plates were read on an Envision (Perkin Elmer, Waltham, Mass.) for time resolved fluorescence resonance energy transfer. The data were analyzed with GraphPad Prism (La Jolla, Calif.).Enzyme Inhibition. To check the inhibition profile, 5 uL, of serial diluted compounds were incubated with 5 uL, of diluted PDE10 enzyme (BPS Bioscience, San Diego, Calif.) or tissue homogenate in a 384-well polystyrene assay plate (Corning, Corning, N.Y.).

Sequence of cAMP and cAMP-inhibited cGMP 3',5'-cyclic phosphodiesterase 10A (Q9Y233 whole entry): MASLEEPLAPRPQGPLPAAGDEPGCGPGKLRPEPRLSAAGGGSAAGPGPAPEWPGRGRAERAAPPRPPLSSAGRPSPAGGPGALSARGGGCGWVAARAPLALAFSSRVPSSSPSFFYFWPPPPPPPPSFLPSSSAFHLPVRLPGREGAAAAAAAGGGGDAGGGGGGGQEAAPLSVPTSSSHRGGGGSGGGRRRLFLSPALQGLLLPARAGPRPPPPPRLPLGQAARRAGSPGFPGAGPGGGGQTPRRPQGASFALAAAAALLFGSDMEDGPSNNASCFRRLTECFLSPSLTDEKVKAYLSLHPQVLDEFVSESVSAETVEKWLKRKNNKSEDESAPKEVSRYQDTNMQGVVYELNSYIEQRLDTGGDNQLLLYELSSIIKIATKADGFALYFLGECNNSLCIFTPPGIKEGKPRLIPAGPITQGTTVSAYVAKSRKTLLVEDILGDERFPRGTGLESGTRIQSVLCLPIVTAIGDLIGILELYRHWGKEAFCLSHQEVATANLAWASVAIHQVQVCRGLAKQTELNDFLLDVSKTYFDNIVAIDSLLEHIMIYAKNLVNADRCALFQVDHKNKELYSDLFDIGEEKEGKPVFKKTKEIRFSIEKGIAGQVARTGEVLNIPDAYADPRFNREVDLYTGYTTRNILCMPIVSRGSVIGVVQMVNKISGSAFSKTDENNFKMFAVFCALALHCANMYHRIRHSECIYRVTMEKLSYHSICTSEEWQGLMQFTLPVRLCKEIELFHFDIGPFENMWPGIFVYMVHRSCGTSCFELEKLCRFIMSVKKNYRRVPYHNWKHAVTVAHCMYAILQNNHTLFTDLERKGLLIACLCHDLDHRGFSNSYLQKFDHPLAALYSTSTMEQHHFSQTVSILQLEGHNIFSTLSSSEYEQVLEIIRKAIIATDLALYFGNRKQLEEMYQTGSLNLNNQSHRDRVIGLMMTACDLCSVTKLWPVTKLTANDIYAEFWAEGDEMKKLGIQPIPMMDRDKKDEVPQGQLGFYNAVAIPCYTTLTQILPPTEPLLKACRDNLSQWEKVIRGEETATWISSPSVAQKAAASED

Cc1cc(-c2cccnc2O[C@H]2CC[C@H](Nc3nc4ccccc4s3)CC2)ccn1
pIC50: 7.71

CC(=O)N1CCC(c2cccnc2O[C@H]2C[C@@H](Nc3ccc4ccccc4n3)C2)CC1
pIC50: 8.88

NC(=O)c1ccc(-c2nccnc2O[C@H]2C[C@@H](Nc3ccc4ccccc4n3)C2)cn1
pIC50: 8.42

Cc1ccnc(N[C@H]2CC[C@H](Oc3ncccc3C3CCOCC3)CC2)c1
pIC50: 6.82

Cc1cccnc1N[C@H]1CC[C@H](Oc2ncccc2C2CCOCC2)CC1
pIC50: 7.34

Cc1cccc(N[C@H]2CC[C@H](Oc3ncccc3C3CCOCC3)CC2)n1
pIC50: 5.76

c1cnc(O[C@H]2CC[C@H](Nc3ccc4ccccc4n3)CC2)c(C2CCOCC2)c1
pIC50: 7.04

c1cnc(O[C@H]2CC[C@H](Nc3nc4ccccc4o3)CC2)c(C2CCOCC2)c1
pIC50: 7.92

c1cnc(O[C@H]2CC[C@H](Nc3nc4ccccc4s3)CC2)c(C2CCOCC2)c1
pIC50: 7.49

Cc1ccc(N[C@H]2C[C@H](Oc3ncccc3C3CCOCC3)C2)nc1
pIC50: 7.75

CC(=O)N1CCC(c2nccnc2O[C@H]2C[C@@H](Nc3nc4ccccc4s3)C2)CC1
pIC50: 8.56

CC(=O)N1CCC(c2nccnc2O[C@H]2C[C@H](Nc3ccc4ccccc4n3)C2)CC1
pIC50: 7.80

O=C(c1ccccn1)C1CC(Oc2ncccc2C2CCOCC2)C1 (centres undefined)
pIC50: 6.60

CC(=O)N1CCC(c2nccnc2O[C@H]2C[C@@H](Nc3ccc(C)cn3)C2)CC1
pIC50: 7.18

CC(=O)N1CCC(c2nccnc2O[C@H]2C[C@H](Nc3ccc(C)cn3)C2)CC1
pIC50: 7.07

c1cnc(O[C@H]2C[C@@H](Nc3nc4ccccc4[nH]3)C2)c(C2CCOCC2)c1
pIC50: 8.82

c1cnc(O[C@H]2C[C@H](Nc3nc4ccccc4[nH]3)C2)c(C2CCOCC2)c1
pIC50: 8.58

c1cnc(O[C@H]2C[C@H](Nc3nc4ccccc4s3)C2)c(C2CCOCC2)c1
pIC50: 8.50

c1cnc(O[C@H]2C[C@@H](Nc3nc4ccccc4s3)C2)c(C2CCOCC2)c1
pIC50: 9.12

Fc1cccc2sc(N[C@H]3C[C@@H](Oc4nccnc4C4CCOCC4)C3)nc12
pIC50: 7.89

Fc1ccc2sc(N[C@H]3C[C@@H](Oc4nccnc4C4CCOCC4)C3)nc2c1
pIC50: 7.74

Fc1ccc2nc(N[C@H]3C[C@@H](Oc4nccnc4C4CCOCC4)C3)sc2c1
pIC50: 7.82

Fc1cnc(O[C@H]2C[C@@H](Nc3nc4c(F)cccc4s3)C2)c(C2CCOCC2)c1
pIC50: 8.27

Fc1cnc(O[C@H]2C[C@@H](Nc3nc4cc(F)ccc4s3)C2)c(C2CCOCC2)c1
pIC50: 8.46

Clc1ccc(C2=CCOCC2)c(O[C@H]2C[C@@H](Nc3nc4ccccc4s3)C2)n1
pIC50: 8.45

Cc1cnccc1-c1nccnc1O[C@H]1C[C@@H](Nc2nc3ccccc3s2)C1
pIC50: 8.37

Cc1cc(-c2nccnc2O[C@H]2C[C@@H](Nc3nc4ccccc4s3)C2)ccn1
pIC50: 7.69

COc1ncccc1-c1nccnc1O[C@H]1C[C@@H](Nc2nc3ccccc3s2)C1
pIC50: 8.39

Cc1ncc(-c2nccnc2O[C@H]2C[C@@H](Nc3nc4ccccc4s3)C2)cn1
pIC50: 8.49

Clc1ccc(-c2nccnc2O[C@H]2C[C@@H](Nc3nc4ccccc4s3)C2)cn1
pIC50: 8.12

N#Cc1ccc(-c2nccnc2O[C@H]2C[C@@H](Nc3nc4ccccc4s3)C2)cn1
pIC50: 8.13

Cc1ccc(-c2nccnc2O[C@H]2C[C@@H](Nc3nc4cc(F)ccc4s3)C2)cn1
pIC50: 7.71

N#Cc1ccc(-c2nccnc2O[C@H]2C[C@@H](Nc3ccc4ccccc4n3)C2)cn1
pIC50: 8.08

N#Cc1ccc(-c2nccnc2O[C@H]2C[C@@H](Nc3ncc4ccccc4n3)C2)cn1
pIC50: 8.11

N#Cc1ccc(-c2cccnc2O[C@H]2C[C@H](Nc3nc4ccccc4s3)C2)cn1
pIC50: 8.53

NC(=O)c1ccc(-c2nccnc2O[C@H]2C[C@@H](Nc3nc4ccccc4s3)C2)cn1
pIC50: 8.53

NC(=O)c1ccc(-c2cccnc2O[C@H]2C[C@@H](Nc3nc4ccccc4s3)C2)cn1
pIC50: 9.89

COCC(=O)N1CCC(c2nccnc2O[C@H]2C[C@@H](Nc3nc4ccccc4s3)C2)CC1
pIC50: 8.18

COC(=O)N1CC(c2nccnc2O[C@H]2C[C@@H](Nc3nc4ccccc4s3)C2)C1
pIC50: 7.76

COCC(=O)N1CCC(c2nccnc2O[C@H]2C[C@@H](Nc3ccc4ccccc4n3)C2)CC1
pIC50: 8.30

COC(=O)N1CCC(c2cccnc2O[C@H]2C[C@@H](Nc3nc4ccccc4s3)C2)CC1
pIC50: 8.50

COCC(=O)N1CCC(c2cccnc2O[C@H]2C[C@@H](Nc3ccc4ccccc4n3)C2)CC1
pIC50: 9.02

OCC1CCN(c2nccnc2O[C@H]2C[C@@H](Nc3nc4ccccc4s3)C2)CC1
pIC50: 8.50

c1ccc2sc(N[C@H]3C[C@@H](Oc4nccnc4N4CCOCC4)C3)nc2c1
pIC50: 7.65

CC1CCN(c2nccnc2O[C@H]2C[C@@H](Nc3nc4ccccc4s3)C2)C1 (some centres undefined)
pIC50: 8.16

N#CC1CCN(c2nccnc2O[C@H]2C[C@@H](Nc3nc4ccccc4s3)C2)C1 (some centres undefined)
pIC50: 8.97

CC1CCCN(c2nccnc2O[C@H]2C[C@@H](Nc3nc4ccccc4s3)C2)C1 (some centres undefined)
pIC50: 7.53

OCC1CCCN(c2nccnc2O[C@H]2C[C@@H](Nc3nc4ccccc4s3)C2)C1 (some centres undefined)
pIC50: 8.44

FC1(F)CCN(c2nccnc2O[C@H]2C[C@@H](Nc3nc4ccccc4s3)C2)C1
pIC50: 7.95

O=S1(=O)CCN(c2nccnc2O[C@H]2C[C@@H](Nc3nc4ccccc4s3)C2)CC1
pIC50: 7.73

O[C@@H]1CCN(c2nccnc2O[C@H]2C[C@@H](Nc3nc4ccccc4s3)C2)C1
pIC50: 7.85

O[C@H]1CCN(c2nccnc2O[C@H]2C[C@@H](Nc3nc4ccccc4s3)C2)C1
pIC50: 7.76

N#CC1CCN(c2nccnc2O[C@H]2C[C@@H](Nc3nc4ccccc4s3)C2)CC1
pIC50: 8.64

CN1CCN(c2nccnc2O[C@H]2C[C@@H](Nc3nc4ccccc4s3)C2)CC1
pIC50: 6.91

N#CC1CCN(c2nccnc2O[C@H]2C[C@@H](Nc3ccc4ccccc4n3)C2)CC1
pIC50: 8.65

CN1CCN(c2nccnc2O[C@H]2C[C@@H](Nc3ncc4ccccc4n3)C2)CC1
pIC50: 6.50

OCC1CCN(c2nccnc2O[C@H]2C[C@@H](Nc3ncc4ccccc4n3)C2)CC1
pIC50: 7.96

CC(=O)N1CCN(c2nccnc2O[C@H]2C[C@@H](Nc3nc4ccccc4s3)C2)CC1
pIC50: 8.03

CC(=O)N1CCN(c2nccnc2O[C@H]2C[C@@H](Nc3ccc4ccccc4n3)C2)CC1
pIC50: 7.63

N#CC1CCN(c2cccnc2O[C@H]2C[C@@H](Nc3nc4ccccc4s3)C2)CC1
pIC50: 8.90

c1cnc(O[C@H]2C[C@@H](Nc3ccc4ccccc4n3)C2)c(C2CCOCC2)c1
pIC50: 8.82

c1ccc2nc(N[C@H]3C[C@@H](Oc4nccnc4C4CCOCC4)C3)ccc2c1
pIC50: 8.12

COC(=O)N1CCC(c2nccnc2O[C@H]2C[C@@H](Nc3nc4ccccc4s3)C2)CC1
pIC50: 8.37

O=C(c1nc2ccccc2[nH]1)[C@H]1C[C@H](Oc2ncccc2C2CCOCC2)C1
pIC50: 8.15
